Measured values: PubChem BioAssay (NCI)
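Dose response: 5 concentrations. Exposure: 48 h. Format: 96-well plates. Endpoint: linear interpolation; highest concentration if not reached. The concentration for full growth arrest is given as TGI.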

Tests used:
Assay in all cases: NCI-60 cell line screen, 48 h
NCI-H522 lung = test system: NCI-H522 lung
UACC-257 melanoma = test system: UACC-257 melanoma
HL-60(TB) leukemia = test system: HL-60(TB) leukemia
OVCAR-5 ovarian = test system: OVCAR-5 ovarian
M14 melanoma = test system: M14 melanoma
MOLT-4 leukemia = test system: MOLT-4 leukemia
RXF 393 renal = test system: RXF 393 renal
HCC-2998 colon = test system: HCC-2998 colon
SF-295 CNS = test system: SF-295 CNS
SK-MEL-5 melanoma = test system: SK-MEL-5 melanoma
NCI-H226 lung = test system: NCI-H226 lung
COLO 205 colon = test system: COLO 205 colon
A549 NSCLC = test system: A549 NSCLC
SK-OV-3 ovarian = test system: SK-OV-3 ovarian
TK-10 renal = test system: TK-10 renal
MCF7 breast = test system: MCF7 breast
T-47D breast = test system: T-47D breast
HOP-92 NSCLC = test system: HOP-92 NSCLC
SK-MEL-28 melanoma = test system: SK-MEL-28 melanoma
NCI-H23 lung = test system: NCI-H23 lung
786-0 renal = test system: 786-0 renal
DU-145 prostate = test system: DU-145 prostate
OVCAR-4 ovarian = test system: OVCAR-4 ovarian
HS 578T breast = test system: HS 578T breast
SK-MEL-2 melanoma = test system: SK-MEL-2 melanoma
MDA-MB-435 = test system: MDA-MB-435
SF-539 CNS = test system: SF-539 CNS
BT-549 breast = test system: BT-549 breast
HOP-62 NSCLC = test system: HOP-62 NSCLC
A498 renal = test system: A498 renal
UO-31 renal = test system: UO-31 renal
KM12 colon = test system: KM12 colon
EKVX NSCLC = test system: EKVX NSCLC
K-562 leukemia = test system: K-562 leukemia
LOX IMVI melanoma = test system: LOX IMVI melanoma
UACC-62 melanoma = test system: UACC-62 melanoma
U251 CNS = test system: U251 CNS
SN12C renal = test system: SN12C renal
NCI/ADR-RES ovarian = test system: NCI/ADR-RES ovarian
ACHN renal = test system: ACHN renal
SR leukemia = test system: SR leukemia
SNB-19 CNS = test system: SNB-19 CNS
OVCAR-3 ovarian = test system: OVCAR-3 ovarian
RPMI-8226 leukemia = test system: RPMI-8226 leukemia
PC-3 prostate = test system: PC-3 prostate
SF-268 CNS = test system: SF-268 CNS
MDA-N = test system: MDA-N
CAKI-1 renal = test system: CAKI-1 renal
SNB-75 CNS = test system: SNB-75 CNS
HT29 colon = test system: HT29 colon
IGROV1 ovarian = test system: IGROV1 ovarian
OVCAR-8 ovarian = test system: OVCAR-8 ovarian
HCT-15 colon = test system: HCT-15 colon
SW-620 colon = test system: SW-620 colon
NCI-H460 lung = test system: NCI-H460 lung
MDA-MB-231 breast = test system: MDA-MB-231 breast
HCT-116 colon = test system: HCT-116 colon
MALME-3M melanoma = test system: MALME-3M melanoma

Measured: TGI

O=C(O)C1[C@@H](C(=O)O)C1(Br)CBr (some centres undefined)
not listed: MALME-3M melanoma
> 100 µM: all other assays above

COC(=O)/C(C#N)=C(\Nc1ccccc1)N1CCCC1
not listed: KM12 colon | UACC-62 melanoma
> 100 µM: all other assays above

N#CCCN(CCC#N)CCN(CCN(CCC#N)CCC#N)CCN(CCC#N)CCC#N
not listed: KM12 colon | UACC-62 melanoma
> 100 µM: all other assays above
